Like-named read-outs stand apart in the source and are kept apart here.
How the values were obtained:
G144-Luc cells = test: G144 cancer stem cell derived intracranial glioblastoma model; format: in vivo, Nude mice; settings: 10 mg/kg and 20 mg/kg QD oral, up to 6 weeks; FIG. 15
Protocol: G144 Cancer Stem Cell Derived Intracranial Glioblastoma Model (Compound 1). An intracranial glioblastoma study was conducted with G144 glioblastoma cells transfected with luciferase (G144-Luc). Nude mice were inoculated intracranially with G144-Luc cells into the brain. Following inoculation of animals, the tumors were allowed to grow for 5 weeks. At the end of 5 weeks following tumor cell inoculation, the mice were imaged using Xenogen imaging system. The mice having tumors with an average flux ranging between 3.71×10^6 and 3.87×10^7 photons/sec were pooled together and randomized into various treatment groups. Compound 1 was formulated in 0.5% CMC and 0.25% Tween 80 in water (as a suspension). The animals were orally administered vehicle (CMC-Tween) or Compound 1 once daily (QD) for up to 6 weeks. Doses of 10 mg/kg and 20 mg/kg Compound 1 were used. The positive control Temozolomide (TMZ) (10 mg/kg, QD) was administered via intra peritoneal (IP) route. Temozolomide was formulated in 5% N-methylpyrrolidone, 45% PEG400 and 50% saline. The animals were monitored for tumor growth by imaging for bioluminescence once a week using Xenogen imaging system. Statistical analysis was performed using a one-way analysis of variance (ANOVA) followed by Dunnett's post-hoc comparison with the vehicle-treated control groups.

DLBCL = test: Phase 1/2 study Part B: tumor response, DLBCL; format: in vivo, human; settings: 11 evaluable patients
Description: (§1) In Part B, subjects may start Compound 1 at the MTD and/or a lower dose level based on safety, PK and PD data from Part A. Approximately 150 subjects will be treated and evaluated for safety and preliminary antitumor activity after every two cycles of therapy. Tumor types include non-small cell lung cancer (NSCLC), glioblastoma multiforme (GBM), hepatocellular carcinoma (HCC), gastrointestinal neuroendocrine tumor of non-pancreatic origin (NET), diffuse large B-cell lymphoma (DLBCL), multiple myeloma (MM), and hormone receptor positive breast cancer (HRPBC). Up to 20 subjects will be enrolled in each tumor type.
(§2) Subjects will be evaluated for efficacy every 2 cycles through cycle 6 and every 3 cycles thereafter. The primary efficacy variable is response. Tumor assessments, including imaging (CT, MRI and/or PET) of the chest and abdomen and other sites as appropriate, will be performed during Screening. Subjects with brain lesions will also have brain scans at Screening and during follow-up tumor assessments. After Screening, tumor assessments (for all tumors except multiple myeloma) will be performed on completion of Cycles 2, 4 and 6 (i.e., on Cycles 3, 5 and 7/Day 1±7 days) and then every 3 months thereafter (e.g., Cycle 10 and 13/Day 1±7 days). Tumor assessment (for multiple myeloma and only NHL/DLBCL with known or suspected marrow involvement) (bone marrow aspiration and biopsy, with PD biomarker analysis, cytogenetic analysis if abnormally present at Screening) will be performed on completion of Cycles 4, 8, 12 and 16 only (i.e., on Cycles 5, 9, 13 and 17/Day 1±7 days). Cytogenetics need not be repeated if normal at Screening. […] Subjects will be evaluated for tumor response on completion of Cycle 2, 4, 6, and so on. […]
(§3) For Part B, efficacy variables to be analyzed include tumor response at the end of treatment, the proportion of subject alive and progression-free, and duration of response. […]

[1] = Phase 1/2 study Part A: pharmacokinetics; format: in vivo, human
Protocol: During the first cycle only in Part A, each subject will be administered a single dose of Compound 1 (Day −1), followed by a 48-hour observation and PK sampling period, followed on Day 1 by daily uninterrupted dosing for 28 days (Cycle 1=30 days). In subsequent Part A cycles, subjects are treated in 28-day cycles with continuous dosing from Day 1 to 28. In Part B, subjects will receive continuous dosing for 28 days from the beginning—there is neither an initial observation period nor a 48-hour PK collection.

[2] = tested on: advanced solid tumors, non-Hodgkin lymphoma or multiple myeloma; test: Phase 1/2 study Part A: tumor response; format: in vivo, human
Description: Subjects will be evaluated for efficacy every 2 cycles through cycle 6 and every 3 cycles thereafter. The primary efficacy variable is response. Tumor assessments, including imaging (CT, MRI and/or PET) of the chest and abdomen and other sites as appropriate, will be performed during Screening. Subjects with brain lesions will also have brain scans at Screening and during follow-up tumor assessments. After Screening, tumor assessments (for all tumors except multiple myeloma) will be performed on completion of Cycles 2, 4 and 6 (i.e., on Cycles 3, 5 and 7/Day 1±7 days) and then every 3 months thereafter (e.g., Cycle 10 and 13/Day 1±7 days). Tumor assessment (for multiple myeloma and only NHL/DLBCL with known or suspected marrow involvement) (bone marrow aspiration and biopsy, with PD biomarker analysis, cytogenetic analysis if abnormally present at Screening) will be performed on completion of Cycles 4, 8, 12 and 16 only (i.e., on Cycles 5, 9, 13 and 17/Day 1±7 days). Cytogenetics need not be repeated if normal at Screening. Tumor response will be based on Response Evaluation Criteria in Solid Tumors (RECIST 1.1), International Workshop Criteria (IWC) for NHL/DLBCL or International Uniform Response Criteria (IURC) for Multiple Myeloma, and RANO for GBM, using the post resection MRI scan as the baseline. Given the difficulty in assessing tumor response following salvage surgery, the primary efficacy endpoint for GBM will be the proportion of subjects progression-free at 6 months from Day 1 relative to efficacy evaluable subjects in the GBM type. Subjects will be evaluated for tumor response on completion of Cycle 2, 4, 6, and so on. A descriptive analysis of evidence of anti-tumor activity will be provided based on clinical and radiographic assessments by the investigator, which includes assessment of target lesion, non-target lesion, new lesion and overall response.
The efficacy variable of focus for Part A will be best overall response. Other preliminary efficacy variables will be summarized using frequency tabulations for categorical variables or descriptive statistics for continuous variables.
Part A: Accelerated Dose Escalation Results.

MM = test: Phase 1/2 study Part B: tumor response, MM; format: in vivo, human; settings: 11 evaluable patients, up to 9 cycles
Description: as §1
Subjects will be evaluated for efficacy every 2 cycles through cycle 6 and every 3 cycles thereafter. The primary efficacy variable is response. Tumor assessments, including imaging (CT, MRI and/or PET) of the chest and abdomen and other sites as appropriate, will be performed during Screening. Subjects with brain lesions will also have brain scans at Screening and during follow-up tumor assessments. […] Subjects will be evaluated for tumor response on completion of Cycle 2, 4, 6, and so on. […]
as §3

NSCLC = test: Phase 1/2 study Part B: tumor response, NSCLC; format: in vivo, human; settings: 17 evaluable patients
Description: as §1, §2, §3

Anbl 6 = test: Cell proliferation and viability assay for MM lines; format: cell-based; settings: Homo sapiens, 120 h, Anbl 6, 5 days, 7AAD FACS
Protocol: Cell Proliferation and Viability Assay for MM Lines. Prior to use, cells were washed and maintained in medium for 5 days. Cells were seeded out at a density of 0.3×10^6 cells/mL in a 12-well plate and treated with Compound 1 or Compound 2 for 5 days. 7AAD detection fluorescence-activated cell sorting (FACS) flow cytometry was used in the analysis.

[3] = ER+/Her2− breast cancer subject

SMILES: CO[C@H]1CC[C@H](N2C(=O)CNc3ncc(-c4ccc(C(C)(C)O)nc4)nc32)CC1 [Compound 1, 7-(6-(2-hydroxypropan-2-yl)pyridin-3-yl)-1-((1r,4r)-4-methoxycyclohexyl)-3,4-dihydropyrazino-[2,3-b]pyrazin-2(1H)-one]
- intracranial tumor growth (G144-Luc cells): significantly inhibited
- best target lesions responses (reduction) (DLBCL): up to 75%
- patients meeting Partial Response (RECIST 1.1) (DLBCL): 2 patients
- patients meeting at least Stable Disease (RECIST 1.1) (DLBCL): 1 patient
- mean steady state Cmax ([1]; 45 mg, day 15): 485 ng/mL
- AUC0-24 ([1]; 45 mg, mean steady state): 2371 ng^xhr/mL
- drug accumulation ([1]; after 15 days of dosing): only minimal drug accumulation
- exposures versus levels estimated to provide >50% inhibition of TORC1 (pS6) and TORC2 (pAKT) for at least 8 hours ([1]; dose levels of 30 mg and higher, estimate from preclinical xenograft models): exceeded
- drug exposure versus dose ([1]; high intersubject variability): Dose proportional
- regression of target lesions ([2]; 1 breast cancer subject, FIG. 27): greater than 30%
- duration of Partial Response, first restaging scan to last scan [2, 3]: 220 days
- duration of partial response, first restaging scan to last dose [2, 3]: 271 days
- time to progression, first dose to last dose [2, 3]: 328 days
- time to progression, first dose to last scan [2, 3]: 277 days
- maximum reduction in target lesions ([2]; ER+/Her2− breast cancer subject, after 10 cycles): 50%
- reduction in target lesions ([2]; ER+/Her2− breast cancer subject, first restaging after 2 cycles): 30%
- longest duration of SD ([2]; Part A): 24 weeks
- subjects with target lesion responses in the stable range ([2]; Part A, FIG. 28): Fifteen subjects
- subjects with Stable Disease at first restaging ([2]; Part A, after 2 cycles): Eight subjects
- subjects with PR (best overall response) ([2]; Part A, breast cancer, dose escalated from 30 to 45 mg, more than 11 cycles): One subject
- tumor responses (IURCMM criteria) (MM): No tumor responses
- patients meeting Partial Response (RECIST 1.1) (NSCLC): 1 patient
- patients meeting at least Stable Disease (RECIST 1.1) (NSCLC): 11 patients
- best target lesions responses (reduction) (NSCLC; 45 mg QD start): up to 35%

SMILES: CCN1C(=O)CNc2ncc(-c3ccc(-c4nc[nH]n4)nc3C)nc21 [Compound 2, 1-ethyl-7-(2-methyl-6-(1H-1,2,4-triazol-3-yl)pyridin-3-yl)-3,4-dihydropyrazino[2,3-b]pyrazin-2(1H)-one]
- IC50 (Anbl 6; read-out: IC50, Proliferation): 370 nM
- IC50 (Anbl 6; read-out: IC50, Viability): 780 nM
